Results from article PMC6627609, “Targeting Quorum Sensing: High-Throughput Screening to Identify Novel LsrK Inhibitors” (International Journal of Molecular Sciences, 2019).
Where a name gives a salt, the structure may show the parent alone.

What follows are molecules tested against LsrK (Salmonella typhimurium, UniProt Q8ZKQ6) (assay: biochemical). Conditions: not given.
Type: biochemical, S. typhimurium

LsrK, sequence (Q8ZKQ6 whole entry): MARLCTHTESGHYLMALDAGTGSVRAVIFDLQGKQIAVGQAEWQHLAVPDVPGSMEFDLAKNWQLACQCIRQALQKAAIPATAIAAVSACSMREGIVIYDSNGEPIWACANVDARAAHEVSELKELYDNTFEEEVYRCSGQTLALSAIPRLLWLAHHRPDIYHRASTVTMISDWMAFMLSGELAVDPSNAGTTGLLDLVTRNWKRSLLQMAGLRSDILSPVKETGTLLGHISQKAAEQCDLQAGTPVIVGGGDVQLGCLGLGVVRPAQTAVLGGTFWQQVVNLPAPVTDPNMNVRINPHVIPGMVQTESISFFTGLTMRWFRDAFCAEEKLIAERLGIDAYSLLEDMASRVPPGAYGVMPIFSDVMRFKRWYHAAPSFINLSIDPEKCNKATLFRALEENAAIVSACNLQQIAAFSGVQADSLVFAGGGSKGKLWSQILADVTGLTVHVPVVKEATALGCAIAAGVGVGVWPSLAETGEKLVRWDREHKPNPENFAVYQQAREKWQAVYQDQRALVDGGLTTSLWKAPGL

| Compound | inhibition at 50 µM [%] | IC50 [µM] |
| --- | --- | --- |
| CCC(=O)O[C@]1(C(=O)CCl)[C@@H](C)C[C@H]2[C@@H]3CCC4=CC(=O)C=C[C@]4(C)[C@@]3(F)[C@@H](O)C[C@@]21C [CLOBETASOL PROPIONATE] | 2 | – |
| CC(C)/N=c1\cc2n(-c3ccc(Cl)cc3)c3ccccc3nc-2cc1Nc1ccc(Cl)cc1 [CLOFAZIMINE] | 0 | – |
| CC(C)(C)CC(C)(C)c1ccc(O)c(Cc2ccc(Cl)cc2Cl)c1 [CLOFOCTOL] | 2 | – |
| COC(=O)[C@H](c1ccccc1Cl)N1CCc2sccc2C1 [CLOPIDOGREL SULFATE] | 11 | – |
| Cc1nc(C)c(Cl)c(O)c1Cl [CLOPIDOL] | 2 | – |
| C=C[C@@]1(C)CC(=O)[C@]2(O)[C@@]3(C)[C@@H](O)CCC(C)(C)[C@@H]3[C@H](O)[C@H](OC(C)=O)[C@@]2(C)O1 [COLFORSIN] | 1 | – |
| C[C@H]1[C@H]2CC[C@H]3[C@@H]4CC=C5C[C@@H](N(C)C)CC[C@]5(C)[C@H]4CC[C@]23CN1C [CONESSINE] | 2 | – |
| C[C@@H]1O[C@@H](O[C@H]2CC[C@]3(C=O)[C@H]4CC[C@]5(C)[C@@H](C6=CC(=O)OC6)CC[C@]5(O)[C@@H]4CC[C@]3(O)C2)[C@H](O)[C@H](O)[C@H]1O [CONVALLATOXIN] | 1 | – |
| COc1c2c(cc3c1OCO3)CC[N+](C)=C2 [COTARNINE CHLORIDE] | 2 | – |
| C[C@H]1COC2=C1C(=O)C(=O)c1c2ccc2c1CCCC2(C)C [CRYPTOTANSHINONE] | 16 | – |
| COc1cc(/C=C/C(=O)CC(=O)/C=C/c2ccc(O)c(OC)c2)ccc1O [CURCUMIN] | 1 | – |
| NC1=NCCN1CC(=O)O [CYCLOCREATINE] | 0 | – |
| N[C@@H]1CON=C1O [CYCLOSERINE] | 0 | – |
| CC1(C)C(C=C(Cl)Cl)C1C(=O)OC(C#N)c1cccc(Oc2ccccc2)c1 (stereo not drawn) [CYPERMETHRIN] | 3 | – |
| CC(=O)O[C@]1(C(C)=O)CC[C@H]2[C@@H]3C=C(Cl)C4=CC(=O)[C@@H]5C[C@@H]5[C@]4(C)[C@H]3CC[C@@]21C [CYPROTERONE ACETATE] | 0 | – |
| O=c1cccc2n1C[C@@H]1CNC[C@H]2C1 [CYTISINE] | 3 | – |
| CN(C)/N=N/c1[nH]cnc1C(N)=O [DACARBAZINE] | 3 | – |
| C=CC(C1=CC(=O)C=CC1=O)c1ccccc1 (stereo not drawn) [DALBERGIONE] | 91 | – |
| O=C1c2cccc(O)c2C(=O)c2c(O)cccc21 [DANTHRON] | 1 | – |
| O=C1CN(/N=C/c2ccc(-c3ccc([N+](=O)[O-])cc3)o2)C(O)=N1 [DANTROLENE SODIUM] | 3 | – |
| Nc1ccc(S(=O)(=O)c2ccc(N)cc2)cc1 [DAPSONE] | 0 | – |

| Compound | inhibition at 50 µM [%] | IC50 [µM] |
| --- | --- | --- |
| NC(=O)C(c1ccccc1)(c1ccccc1)[C@@H]1CCN(CCc2ccc3c(c2)CCO3)C1 [DARIFENACIN HYDROBROMIDE] | 2 | – |
| COc1cccc2c1C(=O)c1c(O)c3c(c(O)c1C2=O)C[C@@](O)(C(C)=O)C[C@@H]3O[C@H]1C[C@H](N)[C@H](O)[C@H](C)O1 [DAUNORUBICIN] | 2 | – |
| CC1(C)C(=O)C=C[C@]2(C)[C@H]3CC[C@@]4(C)[C@H](c5ccoc5)OC(=O)[C@H]5O[C@]54[C@]3(C)C(=O)C[C@@H]12 [DEACETOXY-7-OXOGEDUNIN] | 2 | – |
| CC1(C)C(=O)C=C[C@]2(C)[C@H]3CC[C@@]4(C)[C@H](c5ccoc5)OC(=O)[C@H]5O[C@]54[C@]3(C)[C@H](O)C[C@@H]12 [DEACETYLGEDUNIN] | 1 | – |
| C[N+](C)(C)CCCCCCCCCC[N+](C)(C)C [DECAMETHONIUM BROMIDE] | 0 | – |
| CCCCCCCCCCOc1cc2c(O)c(C(=O)OCC)cnc2cc1OCC [DECOQUINATE] | 36 | – |
| CC(=O)N(O)CCCCCNC(=O)CCC(=O)N(O)CCCCCNC(=O)CCC(=O)N(O)CCCCCN [DEFEROXAMINE MESYLATE] | 1 | – |
| CC(C)c1ccc2c(c1)CC[C@H]1[C@](C)(C(N)=O)CCC[C@]21C [DEHYDROABIETAMIDE] | 2 | – |
| C[C@H](CCC(=O)O)[C@H]1CC[C@H]2[C@@H]3C(=O)C[C@@H]4CC(=O)CC[C@]4(C)[C@H]3CC(=O)[C@]12C [DEHYDROCHOLIC ACID] | 4 | – |
| C=C(C)[C@H]1Cc2c(ccc3c(=O)c4c(oc23)COc2cc(OC)c(OC)cc2-4)O1 [DEHYDROROTENONE] | 1 | – |
| COc1ccc2c(c1)OCc1c-2oc2cc(OC)ccc12 [DEHYDROVARIABILIN] | 1 | – |
| CN(C)[C@@H]1C(O)=C(C(N)=O)C(=O)[C@@]2(O)C(O)=C3C(=O)c4c(O)ccc(Cl)c4[C@@H](O)[C@H]3C[C@@H]12 [DEMECLOCYCLINE HYDROCHLORIDE] | 109 | – |
| CC[N+](CC)(CC(=O)Nc1c(C)cccc1C)Cc1ccccc1 [DENATONIUM BENZOATE] | 1 | – |
| Nc1ncnc2c1ncn2[C@H]1C[C@H](O)[C@@H](CO)O1 [DEOXYADENOSINE] | 3 | – |
| COc1ccc(-c2cc(C(F)F)nn2-c2ccc(S(N)(=O)=O)cc2)cc1F [DERACOXIB] | 2 | – |
| CC1(C)O[C@@H]2C[C@H]3[C@@H]4CCC5=CC(=O)C=C[C@]5(C)[C@H]4[C@@H](O)C[C@]3(C)[C@]2(C(=O)CO)O1 [DESONIDE] | 0 | – |
| CC(=O)OCC(=O)[C@H]1CC[C@H]2[C@@H]3CCC4=CC(=O)CC[C@]4(C)[C@H]3CC[C@]12C [DESOXYCORTICOSTERONE ACETATE] | 1 | – |
| c1ccc2c(c1)CN1CCCC1=N2 [DESOXYPEGANINE HYDROCHLORIDE] | 0 | – |
| CC(=O)OCC(=O)[C@@]1(O)[C@H](C)C[C@H]2[C@@H]3CCC4=CC(=O)C=C[C@]4(C)[C@@]3(F)[C@@H](O)C[C@@]21C [DEXAMETHASONE ACETATE] | 0 | – |
| NC[C@@H]1CC[C@@H](N)[C@@H](O[C@H]2[C@H](O)[C@@H](O[C@H]3O[C@H](CO)[C@@H](O)[C@H](N)[C@H]3O)[C@H](N)C[C@@H]2N)O1 [DIBEKACIN] | 0 | – |
| c1ccc2c(c1)sc1ccccc12 [DIBENZOTHIOPHENE] | 0 | – |

| Compound | inhibition at 50 µM [%] | IC50 [µM] |
| --- | --- | --- |
| CCCCOC(=O)c1ccccc1C(=O)OCCCC [DIBUTYL PHTHALATE] | 0 | – |
| Oc1ccc(Cl)cc1Cc1cc(Cl)ccc1O [DICHLOROPHENE] | 1 | – |
| Cc1onc(-c2c(Cl)cccc2Cl)c1C(=O)N[C@@H]1C(=O)N2[C@@H]1SC(C)(C)[C@@H]2C(=O)O [DICLOXACILLIN SODIUM] | 0 | – |
| O=c1oc2ccccc2c(O)c1Cc1c(O)c2ccccc2oc1=O [DICUMAROL] | 4 | – |
| C/C=C(/C(=C/C)c1ccc(O)cc1)c1ccc(O)cc1 [DIENESTROL] | 2 | – |
| CCN(CC)C(=O)N1CCN(C)CC1 [DIETHYLCARBAMAZINE CITRATE] | 1 | – |
| O=C(O)c1cc(-c2ccc(F)cc2F)ccc1O [DIFLUNISAL] | 5 | – |
| C[C@]12CC[C@H](O)C[C@H]1CC[C@@H]1[C@@H]2C[C@@H](O)[C@]2(C)[C@@H](C3=CC(=O)OC3)CC[C@]12O [DIGOXIGENIN] | 2 | – |
| Cc1c(O)c(O)cc2c1CC=C1[C@@]2(C)CC[C@@]2(C)[C@@H]3C[C@](C)(C(=O)O)CC[C@]3(C)CC[C@]12C [DIHYDROCELASTROL] | 105 | 21 |
| Nc1nc2c(c(=O)[nH]1)N=C(CNc1ccc(C(=O)N[C@@H](CCC(=O)O)C(=O)O)cc1)CN2 [DIHYDROFOLIC ACID] | 49 | – |
| CCCCCC1C(=O)CCC1CC(=O)O (stereo not drawn) [DIHYDROJASMONIC ACID] | 1 | – |
| Cc1cccc2c3c(ccc12)C1=C(C(=O)C3=O)[C@@H](C)CO1 [DIHYDROTANSHINONE I] | 115 | – |
| CN(C(=O)C(Cl)Cl)c1ccc(OC(=O)c2ccco2)cc1 [DILOXANIDE FUROATE] | 4 | – |
| OCC(S)CS (stereo not drawn) [DIMERCAPROL] | 125 | – |
| OCCN(CCO)c1nc(N2CCCCC2)c2nc(N(CCO)CCO)nc(N3CCCCC3)c2n1 [DIPYRIDAMOLE] | 2 | – |
| CC(CCc1ccc(O)cc1)NCCc1ccc(O)c(O)c1 (stereo not drawn) [DOBUTAMINE HYDROCHLORIDE] | 3 | – |
| COc1cc2c(cc1OC)C(=O)C(CC1CCN(Cc3ccccc3)CC1)C2 (stereo not drawn) [DONEPEZIL HYDROCHLORIDE] | 2 | – |
| NCCc1ccc(O)c(O)c1 [DOPAMINE HYDROCHLORIDE] | 2 | – |
| COc1cc2nc(N3CCN(C(=O)C4COc5ccccc5O4)CC3)nc(N)c2cc1OC (stereo not drawn) [DOXAZOSIN MESYLATE] | 0 | – |

Same assay, conditions: 50 µM

| Compound | Inhibition (%) |
| --- | --- |
| C/C1=C2/[N-][C@H]([C@H](CC(N)=O)[C@@]2(C)CCC(=O)NC[C@@H](C)OP(=O)([O-])O[C@H]2[C@@H](O)[C@@H](n3cnc4cc(C)c(C)cc43)O[C@@H]2CO)[C@]2(C)N=C(/C(C)=C3N=C(/C=C4N=C1[C@@H](CCC(N)=O)C\4(C)C)[C@@H](CCC(N)=O)[C@]\3(C)CC(N)=O)[C@@H](CCC(N)=O)[C@]2(C)CC(N)=O.[CH2-][C@H]1O[C@@H](n2cnc3c(N)ncnc32)[C@H](O)[C@@H]1O.[Co] [COENZYME B12] | 20 |
| COC(=O)[C@H]1[C@H]2C[C@H]3c4[nH]c5ccccc5c4CCN3C[C@@H]2CC[C@@H]1O [CORYNANTHINE] | 2 |
| CC(=O)Oc1c(C)cccc1C(=O)O [CRESOPIRINE] | 1 |
| Cl.NCCS [CYSTEAMINE HYDROCHLORIDE] | 19 |
| C=CC(C1=CC(=O)C(OC)=CC1=O)c1ccc(O)cc1 (stereo not drawn) [DALBERGIONE. 4-METHOXY-4'-HYDROXY-] | 90 |
| CC(=O)O[C@@H]1C[C@H]2C(C)(C)C(=O)C=C[C@]2(C)[C@H]2CC[C@]3(C)C(=CC(=O)O[C@H]3c3ccoc3)[C@@]21C [DEOXYGEDUNIN] | 0 |
| CC(=O)O[C@H]1C[C@@H](OC(C)=O)C(C)(C)[C@@H]2C[C@@H](OC(C)=O)[C@@]3(C)C4=CC(=O)O[C@@H](c5ccoc5)[C@]4(C)CC[C@@H]3[C@@]12C [DEOXYKHIVORIN] | 1 |
| C=C[C@@]1(C)CC(=O)[C@@]2(O)[C@](C)(O1)[C@@H](O)[C@@H](O)C1C(C)(C)CC[C@H](O)[C@@]12C (stereo partly drawn) [DESACETYLCOLFORSIN] | 1 |
| CC(=O)Oc1cccc2c1C(=O)c1c(OC(C)=O)cc(C(=O)O)cc1C2=O [DIACERIN] | 0 |
| Cc1c(N(C)CS(=O)(=O)[O-])c(=O)n(-c2ccccc2)n1C.[Na+] [DIPYRONE] | 2 |
